The values below come from patent publication US20090137572A1, “2-substituted-4-heteroaryl-pyrimidines useful for the treatment of proliferative disorders” (priority 2004, published 2009).

One data set deals with CDK4-cyclin D1 (Homo sapiens, UniProt P11802). Description: Kinase assay (radioactive phosphate incorporation), CDK4-cyclin D1. Format: biochemical. To be noted: read-out: Kinase Inhibition pIC50 CDK4-cyclin D1 (converted). The method, boiled down:
(§1)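 Radiometric filter-binding format: recombinant kinase + substrate, pH 7.4 MOPS buffer with EGTA, DTT, vanadate; 100 μM ATP/[γ-32P]-ATP, 15 mM MgCl2; 30° C; stopped on ice, P81 or GF/C filtration, scintillation read.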

In data set [1] the target is T1, Flt3 (FMS-like tyrosine kinase-3) (Homo sapiens, UniProt P36888).
T1 sequence (P36888 27-993): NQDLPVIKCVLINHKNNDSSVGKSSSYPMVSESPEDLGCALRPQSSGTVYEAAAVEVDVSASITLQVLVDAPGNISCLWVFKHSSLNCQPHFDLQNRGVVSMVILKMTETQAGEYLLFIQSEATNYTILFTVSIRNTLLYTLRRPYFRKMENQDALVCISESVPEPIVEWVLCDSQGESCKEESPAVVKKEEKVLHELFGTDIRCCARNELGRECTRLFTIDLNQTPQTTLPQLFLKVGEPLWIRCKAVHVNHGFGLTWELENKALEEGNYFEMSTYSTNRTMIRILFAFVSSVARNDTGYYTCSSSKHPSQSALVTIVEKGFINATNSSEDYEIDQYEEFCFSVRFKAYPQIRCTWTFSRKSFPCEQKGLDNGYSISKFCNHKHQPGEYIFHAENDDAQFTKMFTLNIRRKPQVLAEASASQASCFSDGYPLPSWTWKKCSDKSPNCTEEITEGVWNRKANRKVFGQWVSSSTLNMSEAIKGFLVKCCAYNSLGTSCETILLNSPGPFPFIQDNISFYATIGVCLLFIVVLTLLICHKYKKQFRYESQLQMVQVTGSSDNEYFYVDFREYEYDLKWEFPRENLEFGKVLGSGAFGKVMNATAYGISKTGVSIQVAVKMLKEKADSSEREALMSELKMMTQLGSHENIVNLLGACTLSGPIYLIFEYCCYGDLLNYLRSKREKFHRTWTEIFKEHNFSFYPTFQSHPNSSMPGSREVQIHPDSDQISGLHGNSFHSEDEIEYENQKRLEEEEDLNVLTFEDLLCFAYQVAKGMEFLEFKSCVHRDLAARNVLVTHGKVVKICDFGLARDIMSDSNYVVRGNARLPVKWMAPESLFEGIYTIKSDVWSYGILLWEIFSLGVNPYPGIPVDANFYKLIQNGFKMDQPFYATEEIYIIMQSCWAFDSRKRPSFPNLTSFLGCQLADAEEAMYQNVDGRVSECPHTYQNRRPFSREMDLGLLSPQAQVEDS
Description: Kinase assay (radioactive phosphate incorporation), Flt3. Format: biochemical. To be noted: pIC50 is -log(IC50, M), read-out: Kinase Inhibition pIC50 Flt3 (converted). Put shortly: as §1

The target in the next data set is CDK2-cyclin A (Homo sapiens, UniProt P24941). Description: Kinase assay (radioactive phosphate incorporation), CDK2-cyclin A. Format: biochemical. To be noted: read-out: Kinase Inhibition pIC50 CDK2-cyclin A (converted). The method, boiled down:
as §1

In the next data set the target is CDK1-cyclin B (Homo sapiens, UniProt P06493). Description: Kinase assay (radioactive phosphate incorporation), CDK1-cyclin B. Format: biochemical. The settings on record: read-out: Kinase Inhibition pIC50 CDK1-cyclin B (converted). Put shortly: as §1
Chain of CDK1-cyclin B (P06493 whole entry): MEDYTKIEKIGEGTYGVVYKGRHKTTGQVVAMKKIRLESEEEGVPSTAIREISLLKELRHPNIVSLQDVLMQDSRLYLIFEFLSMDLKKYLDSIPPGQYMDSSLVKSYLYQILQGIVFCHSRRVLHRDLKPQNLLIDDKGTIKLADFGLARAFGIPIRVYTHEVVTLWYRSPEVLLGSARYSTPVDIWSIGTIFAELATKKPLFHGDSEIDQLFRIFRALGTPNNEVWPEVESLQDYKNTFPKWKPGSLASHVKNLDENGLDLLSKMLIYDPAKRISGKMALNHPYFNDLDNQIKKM
Chain of CDK1-cyclin B (P14635 whole entry partner): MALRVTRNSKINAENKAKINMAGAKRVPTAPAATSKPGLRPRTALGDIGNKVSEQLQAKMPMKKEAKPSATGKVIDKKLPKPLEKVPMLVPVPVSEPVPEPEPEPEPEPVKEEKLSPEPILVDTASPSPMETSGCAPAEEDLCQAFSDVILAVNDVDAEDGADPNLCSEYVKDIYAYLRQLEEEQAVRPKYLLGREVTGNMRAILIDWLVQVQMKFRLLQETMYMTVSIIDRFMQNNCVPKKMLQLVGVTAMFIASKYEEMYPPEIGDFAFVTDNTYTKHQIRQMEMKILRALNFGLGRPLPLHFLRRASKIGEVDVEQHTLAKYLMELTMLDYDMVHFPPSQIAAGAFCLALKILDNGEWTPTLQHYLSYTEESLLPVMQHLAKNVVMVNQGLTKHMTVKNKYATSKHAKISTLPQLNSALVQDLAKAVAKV
For another data set, the target named is GSK3b (Homo sapiens, UniProt P49841). Description: Kinase assay (radioactive phosphate incorporation), GSK-3b. The class given is biochemical. To be noted: read-out: Kinase Inhibition pIC50 GSK-3b (converted). The method, boiled down:
as §1

A further data set concerns the target T2, Aurora A kinase (Homo sapiens, UniProt O14965).
T2 construct: purchased
T2 sequence (O14965 1-403): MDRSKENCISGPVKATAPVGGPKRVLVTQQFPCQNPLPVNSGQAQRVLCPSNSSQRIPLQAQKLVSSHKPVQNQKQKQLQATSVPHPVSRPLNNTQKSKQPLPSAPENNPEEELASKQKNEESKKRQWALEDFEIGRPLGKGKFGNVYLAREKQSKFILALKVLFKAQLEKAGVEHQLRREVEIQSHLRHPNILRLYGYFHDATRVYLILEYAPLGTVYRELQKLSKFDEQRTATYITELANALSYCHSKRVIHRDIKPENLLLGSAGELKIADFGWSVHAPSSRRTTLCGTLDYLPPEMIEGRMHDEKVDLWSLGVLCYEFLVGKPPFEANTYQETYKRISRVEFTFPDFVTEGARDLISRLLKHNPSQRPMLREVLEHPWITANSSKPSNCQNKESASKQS
Description: Aurora-A (human) kinase assay (Kemptide substrate). Format: biochemical. The settings on record: pIC50 is -log(IC50, M); 15 μM ATP; read-out: Kinase Inhibition pIC50 Aurora A kinase (converted). Put shortly:
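Radiometric filter-binding assay: commercial aurora-A kinase (5-10 ng) with 200 μM Kemptide in MOPS/EDTA pH 7.0, started with 10 mM Mg acetate and 15 μM ATP plus [γ-33P]-ATP. Incubated 40 min at room temperature, stopped with phosphoric acid, incorporated 33P counted by scintillation.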

The target of the next data set is CDK2-cycline E (Homo sapiens, UniProt P24941). Description: Kinase assay (radioactive phosphate incorporation), CDK2-cyclin E. The class given is biochemical. To be noted: read-out: Kinase Inhibition pIC50 CDK2-cycline E (converted). Put shortly: as §1
For a further data set, the target named is CDK7/cyclin H (Homo sapiens, UniProt P50613). Description: CDK 7 assay (CTD peptide substrate). Format: biochemical. To be noted: read-out: Kinase Inhibition pIC50 CDK7-cyclin H (converted). Put shortly: (§2)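 Test compounds were incubated with recombinant human kinase/cyclin complex and CTD peptide substrate for 45 min at 30° C (pH 7.2, 100 μM ATP spiked with 32PγATP, 15 mM MgCl2). Reactions were stopped on ice, avidin was added, and phosphorylated peptide was captured on P81 filters and counted by scintillation.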
Chain of CDK7/cyclin H (P50613 whole entry): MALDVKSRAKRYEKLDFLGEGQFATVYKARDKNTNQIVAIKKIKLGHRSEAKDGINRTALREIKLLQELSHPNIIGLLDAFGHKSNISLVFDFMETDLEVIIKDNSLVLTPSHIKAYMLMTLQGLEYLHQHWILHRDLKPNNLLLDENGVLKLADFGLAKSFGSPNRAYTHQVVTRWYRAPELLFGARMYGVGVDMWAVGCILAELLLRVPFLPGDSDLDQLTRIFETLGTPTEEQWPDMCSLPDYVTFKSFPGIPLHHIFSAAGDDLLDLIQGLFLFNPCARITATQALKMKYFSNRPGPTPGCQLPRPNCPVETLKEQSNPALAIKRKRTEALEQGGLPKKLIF
Chain of CDK7/cyclin H (P51946 whole entry partner): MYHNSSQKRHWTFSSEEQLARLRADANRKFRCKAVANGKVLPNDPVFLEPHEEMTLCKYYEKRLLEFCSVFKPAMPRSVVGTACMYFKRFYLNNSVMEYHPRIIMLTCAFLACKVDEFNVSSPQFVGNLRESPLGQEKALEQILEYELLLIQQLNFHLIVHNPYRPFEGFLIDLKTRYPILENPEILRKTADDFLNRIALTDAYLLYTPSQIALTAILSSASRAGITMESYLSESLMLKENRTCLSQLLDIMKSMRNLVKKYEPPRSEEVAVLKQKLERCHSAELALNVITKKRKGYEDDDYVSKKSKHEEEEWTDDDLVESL

Another data set addresses CDK9/cyclin T1 (Homo sapiens, UniProt P50750). Description: CDK 9 assay (CTD peptide substrate). The class given is biochemical. To be noted: read-out: Kinase Inhibition pIC50 CDK9-cyclin T1 (converted). Put shortly:
as §2

Chain of CDK9/cyclin T1 (P50750 whole entry): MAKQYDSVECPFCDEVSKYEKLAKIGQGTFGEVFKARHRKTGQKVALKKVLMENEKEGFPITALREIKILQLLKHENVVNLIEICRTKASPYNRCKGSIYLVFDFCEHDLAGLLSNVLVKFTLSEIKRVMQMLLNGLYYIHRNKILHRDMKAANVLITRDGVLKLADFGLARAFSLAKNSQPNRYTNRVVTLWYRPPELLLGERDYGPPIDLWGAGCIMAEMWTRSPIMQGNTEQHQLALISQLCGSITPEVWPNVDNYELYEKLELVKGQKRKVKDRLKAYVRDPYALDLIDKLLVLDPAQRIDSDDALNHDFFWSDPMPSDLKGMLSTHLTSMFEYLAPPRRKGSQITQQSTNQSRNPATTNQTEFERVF
Chain of CDK9/cyclin T1 (O60563 whole entry partner): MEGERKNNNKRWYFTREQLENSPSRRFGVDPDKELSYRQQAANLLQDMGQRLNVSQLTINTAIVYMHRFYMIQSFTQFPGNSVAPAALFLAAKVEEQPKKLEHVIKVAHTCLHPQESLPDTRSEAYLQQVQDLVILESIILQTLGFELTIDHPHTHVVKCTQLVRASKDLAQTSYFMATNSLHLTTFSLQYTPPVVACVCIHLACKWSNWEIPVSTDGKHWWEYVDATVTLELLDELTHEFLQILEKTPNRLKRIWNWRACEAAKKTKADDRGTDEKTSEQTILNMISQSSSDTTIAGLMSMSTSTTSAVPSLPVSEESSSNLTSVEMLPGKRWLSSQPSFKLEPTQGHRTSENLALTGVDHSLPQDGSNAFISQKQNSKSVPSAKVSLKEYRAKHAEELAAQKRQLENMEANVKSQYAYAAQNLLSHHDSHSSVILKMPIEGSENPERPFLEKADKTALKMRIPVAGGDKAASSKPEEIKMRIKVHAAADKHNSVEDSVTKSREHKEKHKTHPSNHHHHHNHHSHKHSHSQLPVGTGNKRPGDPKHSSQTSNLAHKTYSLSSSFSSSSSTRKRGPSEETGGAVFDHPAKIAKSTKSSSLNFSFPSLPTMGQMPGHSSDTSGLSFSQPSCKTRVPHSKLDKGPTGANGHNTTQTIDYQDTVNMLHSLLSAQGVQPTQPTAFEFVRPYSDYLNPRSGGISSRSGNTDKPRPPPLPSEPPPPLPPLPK
Chain of GSK3b (P49841 whole entry, species assumed): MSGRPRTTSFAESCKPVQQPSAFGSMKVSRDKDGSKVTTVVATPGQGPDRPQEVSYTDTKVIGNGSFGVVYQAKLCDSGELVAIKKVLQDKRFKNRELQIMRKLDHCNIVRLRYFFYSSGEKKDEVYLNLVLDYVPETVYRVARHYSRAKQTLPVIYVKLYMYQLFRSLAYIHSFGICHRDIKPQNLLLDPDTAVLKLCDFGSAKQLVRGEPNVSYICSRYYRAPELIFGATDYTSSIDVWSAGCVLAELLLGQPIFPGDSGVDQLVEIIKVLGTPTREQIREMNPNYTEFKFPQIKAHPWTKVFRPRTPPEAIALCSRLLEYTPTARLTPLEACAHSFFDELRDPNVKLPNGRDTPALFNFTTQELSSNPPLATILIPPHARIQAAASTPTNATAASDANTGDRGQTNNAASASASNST
Chain of CDK4-cyclin D1 (P11802 whole entry): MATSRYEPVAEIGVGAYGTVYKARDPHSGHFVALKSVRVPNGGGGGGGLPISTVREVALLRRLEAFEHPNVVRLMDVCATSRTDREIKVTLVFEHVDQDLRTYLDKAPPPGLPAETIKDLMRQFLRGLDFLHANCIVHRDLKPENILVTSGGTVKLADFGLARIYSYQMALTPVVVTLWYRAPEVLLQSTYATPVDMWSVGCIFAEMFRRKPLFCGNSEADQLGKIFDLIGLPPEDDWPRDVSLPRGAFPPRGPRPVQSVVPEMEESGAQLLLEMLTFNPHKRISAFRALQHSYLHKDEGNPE
Chain of CDK4-cyclin D1 (P24385 whole entry partner): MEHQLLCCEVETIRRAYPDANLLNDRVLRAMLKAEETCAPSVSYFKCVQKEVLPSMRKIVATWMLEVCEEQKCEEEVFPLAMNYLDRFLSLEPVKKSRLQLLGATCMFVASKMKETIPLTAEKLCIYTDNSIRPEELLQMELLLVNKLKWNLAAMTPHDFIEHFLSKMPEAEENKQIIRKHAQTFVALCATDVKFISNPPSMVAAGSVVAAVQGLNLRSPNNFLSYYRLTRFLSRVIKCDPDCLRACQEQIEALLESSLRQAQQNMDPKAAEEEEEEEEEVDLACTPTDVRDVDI

As to `CCNc1nc(C)c(-c2ccnc(Nc3ccc(S(N)(=O)=O)cc3)n2)s1` [Compound 35, 4-[4-(2-Ethylamino-4-methyl-thiazol-5-yl)-pyrimidin-2-ylamino]-benzenesulfonamide], the IC50 on CDK4-cyclin D1 was 20 nM; in [1], 63.1 nM; on CDK2-cyclin A it was 6.31 nM; on CDK1-cyclin B, 31.6 nM; on GSK3b, 631 nM; at Aurora A kinase it was 63.1 nM. The IC50 at CDK2-cycline E is 3.98 nM; on CDK7/cyclin H, 79.4 nM; on CDK9/cyclin T1, 10 nM.

For the compound `CCNc1nc(C)c(-c2ccnc(Nc3cccc(S(=O)(=O)NCCOC)c3)n2)s1` [Compound 53, 3-[4-(2-Ethylamino-4-methyl-thiazol-5-yl)-pyrimidin-2-ylamino]-N-(2-methoxy-ethyl)-benzenesulfonamide], the IC50 on CDK4-cyclin D1 was 158 nM; in [1], 200 nM; at CDK2-cyclin A, 2000 nM; at CDK1-cyclin B it was 2000 nM; at GSK3b it was 501 nM; on Aurora A kinase, 158 nM. The IC50 at CDK2-cycline E was 398 nM; on CDK7/cyclin H it was 158 nM; at CDK9/cyclin T1, 100 nM.

`Cc1nc(N)sc1-c1ccnc(Nc2ccc(S(=O)(=O)NCCO)cc2)n1` [Compound 68, 4-[4-(2-Amino-4-methyl-thiazol-5-yl)-pyrimidin-2-ylamino]-N-(2-hydroxy-ethyl)-benzenesulfonamide]: the IC50 is 1580 nM on CDK4-cyclin D1; 200 nM in [1]; 20 nM on CDK2-cyclin A; 20 nM on CDK1-cyclin B; 1260 nM at GSK3b; 63.1 nM at Aurora A kinase. In addition, the IC50 is 10 nM at CDK2-cycline E, 2000 nM at CDK7/cyclin H and 200 nM at CDK9/cyclin T1.

As usually defined, the melting point is the temperature, or range, at which the solid turns liquid. For `CCNc1nc(C)c(-c2ccnc(Nc3cccc(S(=O)(=O)NCCO)c3)n2)s1` [Compound 75, 3-[4-(2-Ethylamino-4-methyl-thiazol-5-yl)-pyrimidin-2-ylamino]-N-(2-hydroxy-ethyl)-benzenesulfonamide], the melting point fell in the range of 124 to 125 °C. Moreover, the IC50 at CDK4-cyclin D1 is 126 nM. In addition, the IC50 in data set [1] was 63.1 nM. Also, the IC50 at CDK2-cyclin A was 1260 nM. Moreover, the IC50 at CDK1-cyclin B was 1000 nM. Also, the IC50 on GSK3b is 794 nM. In addition, the IC50 at CDK2-cycline E is 200 nM. Moreover, the IC50 at CDK7/cyclin H is 398 nM. Besides, at CDK9/cyclin T1, the IC50 is 63.1 nM.

Consider `CNc1nc(C)c(-c2ccnc(Nc3cccc(S(=O)(=O)NCCO)c3)n2)s1` [Compound 76, N-(2-Hydroxy-ethyl)-3-[4-(4-methyl-2-methylamino-thiazol-5-yl)-pyrimidin-2-ylamino]-benzenesulfonamide], for which the melting point lay in the range of 189 to 190 °C. The IC50 at CDK4-cyclin D1 is 100 nM. Also, in data set [1], the IC50 is 100 nM. In addition, at CDK2-cyclin A, the IC50 is 1580 nM. In addition, the IC50 on CDK1-cyclin B was 1260 nM. Moreover, on GSK3b, the IC50 is 501 nM. Besides, the IC50 on Aurora A kinase is 39.8 nM. Also, the IC50 on CDK2-cycline E is 316 nM. Besides, the IC50 on CDK7/cyclin H was 794 nM. At CDK9/cyclin T1, the IC50 was 63.1 nM.

For the compound `Cc1nc(N)sc1-c1ccnc(Nc2cccc(S(=O)(=O)NCCO)c2)n1` [Compound 77, 3-[4-(2-Amino-4-methyl-thiazol-5-yl)-pyrimidin-2-ylamino]-N-(2-hydroxy-ethyl)-benzenesulfonamide], the IC50 on CDK4-cyclin D1 was 126 nM; in [1], 158 nM; on CDK2-cyclin A, 1000 nM; at CDK1-cyclin B, 1000 nM; on GSK3b it was 316 nM; on Aurora A kinase, 100 nM. Further, the IC50 was 126 nM at CDK2-cycline E, 398 nM at CDK7/cyclin H and 25.1 nM at CDK9/cyclin T1.
